Results on one compound are retold here after US7887840B2, “Pharmaceutical compositions comprising drug and concentration-enhancing polymers” (Bend Research, Inc., priority 2001, dated 2011).

Each structure is given as a SMILES string. Counter-ions that a name gives are not always drawn.

A short description of this series: in vitro dissolution test using a microcentrifuge method. It counts as physicochemical. More on the design: AUC / AUC90: concentration or dose not given beside the values. The following applies: for Ziprasidone Concentration: 50 mM MOPS buffer with 150 mM NaCl, pH 7.4, 37° C., supernatant after centrifugation. The protocol: The dissolution of ziprasidone from the complex mixed with various concentration-enhancing polymers was evaluated in an in vitro dissolution test using a microcentrifuge method. […] The polymer amounts are expressed as wt % based on the weight of the complex. […] Ltd., Tokyo, Japan). […] Tests were performed in duplicate. The tubes were placed in a 37° C. temperature-controlled chamber, and 1.8 mL of 50 mM 4-morpholinepropanesulfonic acid (MOPS) buffer with 150 mM NaCl (pH 7.4) was added. The samples were quickly mixed using a vortex mixer for about 60 seconds. […] The resulting supernatant solution was then sampled and diluted 1:4 (by volume) with methanol and then analyzed by high-performance liquid chromatography (HPLC). A Phenomenex Ultracarb 5 ODS HPLC column was used with a mobile phase of 60 vol. % of 0.02 M KH2PO4 (pH 3.0), and 40 vol. % acetonitrile. UV detection was measured at 254 nm. The contents of the tubes were mixed on the vortex mixer and allowed to stand undisturbed at 37° C. until the next sample was taken. […] The concentrations of drug obtained in these samples are shown below. The dissolution of ziprasidone from these complexes mixed with concentration-enhancing polymer was evaluated using the in vitro dissolution test described in the Examples above.

For the setting “dissolution AUC 0-90 min, MOPS buffer pH 7.4, 37° C.”, `O=C1Cc2cc(CCN3CCN(c4nsc5ccccc45)CC3)c(Cl)cc2N1` [Example C2, ziprasidone mesylate] displayed an AUC90 of 100 µg·min/mL. Further, the exposure (AUC) (as a rule, the area under the concentration-time curve, a measure of exposure) reads like this: (dissolution AUC up to 0 min, MOPS buffer pH 7.4, 37° C.) 0 µg·min/mL; (dissolution AUC up to 4 min, MOPS buffer pH 7.4, 37° C.) 0 µg·min/mL; (dissolution AUC up to 10 min, MOPS buffer pH 7.4, 37° C.) 0 µg·min/mL; (dissolution AUC up to 30 min, MOPS buffer pH 7.4, 37° C.) 0 µg·min/mL; (dissolution AUC up to 60 min, MOPS buffer pH 7.4, 37° C.) 0 µg·min/mL; (dissolution AUC up to 90 min, MOPS buffer pH 7.4, 37° C.) 100 µg·min/mL. The “Cmax,90” value (maximum ziprasidone concentration within 90 min, MOPS buffer pH 7.4, 37° C.) came to 3000 ng/mL. Further, the “Ziprasidone Concentration” value reads like this: (time 0 min) 0 µg/mL; (time 4 min) 3 µg/mL; (time 10 min) 1 µg/mL; (time 30 min) 1 µg/mL; (time 60 min) 1 µg/mL; (time 90 min) 1 µg/mL.
